We go through two compounds from ChEMBL document CHEMBL3045831, “Insight into the structural requirement of aryltriazolinone derivatives as angiotensin II AT1 receptor: 2D and 3D-QSAR k-Nearest Neighbor Molecular Field Analysis approach” (Med Chem Res, 2012).

pIC50: −log10 of the molar value.

In this assay the target is T1, Type-1 angiotensin II receptor (Oryctolagus cuniculus, UniProt P34976).
T1 sequence (P34976 whole entry): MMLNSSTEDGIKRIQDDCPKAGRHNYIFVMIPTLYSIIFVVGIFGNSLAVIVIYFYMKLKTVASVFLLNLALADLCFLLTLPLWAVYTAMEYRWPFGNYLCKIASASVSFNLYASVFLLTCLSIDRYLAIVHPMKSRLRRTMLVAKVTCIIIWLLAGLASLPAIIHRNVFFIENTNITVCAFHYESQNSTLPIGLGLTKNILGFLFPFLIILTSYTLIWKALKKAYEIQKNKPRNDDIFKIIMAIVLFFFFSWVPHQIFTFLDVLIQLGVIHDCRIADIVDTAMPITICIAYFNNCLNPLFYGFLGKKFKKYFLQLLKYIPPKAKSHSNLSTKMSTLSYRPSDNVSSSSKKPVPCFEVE
The experiment in a line: Antagonist activity at Oryctolagus cuniculus (rabbit) aortic AT1 receptor.

As for `CCCCC(=O)Nc1ccc(Cl)c(-n2nc(CCC)n(Cc3ccc(-c4ccccc4S(=O)(=O)NC(=O)c4cc(Cl)ccc4Cl)cc3F)c2=O)c1`, under “read-out: IC50”, the pIC50 was 9.72.

For `CCCCNC(=O)c1ccc(Cl)c(-n2nc(CCCC)n(Cc3ccc(-c4ccccc4S(=O)(=O)NC(=O)OC(C)(C)C)cc3F)c2=O)c1`, the IC50 (read-out: pIC50 (converted)) was 0.178 nM.
